Source: PubChem BioAssay (NCI)
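GI50 marks 50% less growth. At the TGI there is no net growth.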

What was measured:
Assay in all cases: growth of human tumour cells (NCI), 384-well format
T-47D breast = tested on: T-47D breast
CCRF-CEM leukemia = tested on: CCRF-CEM leukemia
HS 578T breast = tested on: HS 578T breast
UO-31 renal = tested on: UO-31 renal
SN12C renal = tested on: SN12C renal
ACHN renal = tested on: ACHN renal
NCI-H322M lung = tested on: NCI-H322M lung
NCI-H522 lung = tested on: NCI-H522 lung
UACC-62 melanoma = tested on: UACC-62 melanoma
HOP-92 NSCLC = tested on: HOP-92 NSCLC
786-0 renal = tested on: 786-0 renal
MDA-MB-231 breast = tested on: MDA-MB-231 breast
TK-10 renal = tested on: TK-10 renal
HOP-62 NSCLC = tested on: HOP-62 NSCLC
SK-MEL-28 melanoma = tested on: SK-MEL-28 melanoma
KM12 colon = tested on: KM12 colon
IGROV1 ovarian = tested on: IGROV1 ovarian
RXF 393 renal = tested on: RXF 393 renal
BT-549 breast = tested on: BT-549 breast
SK-OV-3 ovarian = tested on: SK-OV-3 ovarian
SW-620 colon = tested on: SW-620 colon
MOLT-4 leukemia = tested on: MOLT-4 leukemia
SNB-75 CNS = tested on: SNB-75 CNS
SF-268 CNS = tested on: SF-268 CNS
SNB-19 CNS = tested on: SNB-19 CNS
HL-60(TB) leukemia = tested on: HL-60(TB) leukemia
RPMI-8226 leukemia = tested on: RPMI-8226 leukemia
A549 NSCLC = tested on: A549 NSCLC
NCI-H226 lung = tested on: NCI-H226 lung
SK-MEL-5 melanoma = tested on: SK-MEL-5 melanoma
M14 melanoma = tested on: M14 melanoma
OVCAR-4 ovarian = tested on: OVCAR-4 ovarian
DU-145 prostate = tested on: DU-145 prostate
SR leukemia = tested on: SR leukemia
OVCAR-5 ovarian = tested on: OVCAR-5 ovarian
MALME-3M melanoma = tested on: MALME-3M melanoma
UACC-257 melanoma = tested on: UACC-257 melanoma
MDA-MB-468 breast = tested on: MDA-MB-468 breast
NCI-H23 lung = tested on: NCI-H23 lung
LOX IMVI melanoma = tested on: LOX IMVI melanoma
U251 glioblastoma = tested on: U251 glioblastoma
HCC-2998 colon = tested on: HCC-2998 colon
SF-539 CNS = tested on: SF-539 CNS
HCT-116 colon = tested on: HCT-116 colon
PC-3 prostate = tested on: PC-3 prostate
SF-295 CNS = tested on: SF-295 CNS
NCI-H460 NSCLC = tested on: NCI-H460 NSCLC
MCF7 breast = tested on: MCF7 breast
SK-MEL-2 melanoma = tested on: SK-MEL-2 melanoma
K-562 leukemia = tested on: K-562 leukemia
CAKI-1 renal = tested on: CAKI-1 renal
HCT-15 colon = tested on: HCT-15 colon
OVCAR-8 ovarian = tested on: OVCAR-8 ovarian
HT29 colon = tested on: HT29 colon
OVCAR-3 ovarian = tested on: OVCAR-3 ovarian
MDA-MB-435 melanoma = tested on: MDA-MB-435 melanoma
EKVX NSCLC = tested on: EKVX NSCLC
A498 renal = tested on: A498 renal
COLO 205 colon = tested on: COLO 205 colon

COc1cc([C@@H]2c3cc4c(cc3[C@@H](OC3OC5COC(C)OC5C(O)C3O)[C@H]3COC(=O)[C@H]23)OCO4)cc(OC)c1O (stereo not given in full)
GI50 (T-47D breast): 1040 nM | TGI (T-47D breast): > 95300 nM | GI50 (CCRF-CEM leukemia): 63.8 nM | TGI (CCRF-CEM leukemia): 200 nM | GI50 (HS 578T breast): 463 nM | TGI (HS 578T breast): 4820 nM | GI50 (UO-31 renal): 22200 nM | TGI (UO-31 renal): > 77900 nM | GI50 (SN12C renal): 1280 nM | TGI (SN12C renal): 5720 nM | GI50 (ACHN renal): 1800 nM | TGI (ACHN renal): 10300 nM | GI50 (NCI-H322M lung): 29100 nM | TGI (NCI-H322M lung): > 96700 nM | GI50 (NCI-H522 lung): 1210 nM | TGI (NCI-H522 lung): 7350 nM | GI50 (UACC-62 melanoma): 1330 nM | TGI (UACC-62 melanoma): 16600 nM | GI50 (HOP-92 NSCLC): 2460 nM | TGI (HOP-92 NSCLC): > 43100 nM | GI50 ([…]-0 renal): 1590 nM | TGI (786-0 renal): 7560 nM | GI50 (MDA-MB-231 breast): 1880 nM | TGI (MDA-MB-231 breast): 4620 nM | GI50 (TK-10 renal): 2880 nM | TGI (TK-10 renal): 11300 nM | GI50 (HOP-62 NSCLC): 747 nM | TGI (HOP-62 NSCLC): 2510 nM | GI50 (SK-MEL-28 melanoma): 2610 nM | TGI (SK-MEL-28 melanoma): 11400 nM | GI50 (KM12 colon): 1680 nM | TGI (KM12 colon): 7910 nM | GI50 (IGROV1 ovarian): 4270 nM | TGI (IGROV1 ovarian): > 37600 nM | GI50 (RXF 393 renal): 9620 nM | TGI (RXF 393 renal): 38300 nM | GI50 (BT-549 breast): 877 nM | TGI (BT-549 breast): 4740 nM | GI50 (SK-OV-3 ovarian): 2940 nM | TGI (SK-OV-3 ovarian): 14600 nM | GI50 (SW-620 colon): 441 nM | TGI (SW-620 colon): 5580 nM | GI50 (MOLT-4 leukemia): 17.6 nM | TGI (MOLT-4 leukemia): 38.9 nM | GI50 (SNB-75 CNS): 1360 nM | TGI (SNB-75 CNS): 6630 nM | GI50 (SF-268 CNS): 1360 nM | TGI (SF-268 CNS): 6870 nM | GI50 (SNB-19 CNS): 1080 nM | TGI (SNB-19 CNS): > 23100 nM | GI50 (HL-60(TB) leukemia): 21.5 nM | TGI (HL-60(TB) leukemia): 49.2 nM | GI50 (RPMI-8226 leukemia): 36.1 nM | TGI (RPMI-8226 leukemia): 564 nM | GI50 (A549 NSCLC): 1220 nM | TGI (A549 NSCLC): > 47000 nM | GI50 (NCI-H226 lung): 2480 nM | TGI (NCI-H226 lung): > 37200 nM | GI50 (SK-MEL-5 melanoma): 370 nM | TGI (SK-MEL-5 melanoma): 1710 nM | GI50 (M14 melanoma): 1320 nM | TGI (M14 melanoma): 6640 nM | GI50 (OVCAR-4 ovarian): 39900 nM | GI50 (DU-145 prostate): 1520 nM | TGI (DU-145 prostate): 5250 nM | GI50 (SR leukemia): 16.1 nM | TGI (SR leukemia): 49.4 nM | GI50 (OVCAR-5 ovarian): 3370 nM | TGI (OVCAR-5 ovarian): 13800 nM | GI50 (MALME-3M melanoma): 6150 nM | TGI (MALME-3M melanoma): 43500 nM | GI50 (UACC-257 melanoma): 16600 nM | TGI (UACC-257 melanoma): > 75900 nM | GI50 (MDA-MB-468 breast): 1130 nM | TGI (MDA-MB-468 breast): 2780 nM | GI50 (NCI-H23 lung): 809 nM | TGI (NCI-H23 lung): 4370 nM | GI50 (LOX IMVI melanoma): 1660 nM | TGI (LOX IMVI melanoma): 15900 nM | GI50 (U251 glioblastoma): 533 nM | TGI (U251 glioblastoma): 5050 nM | GI50 (HCC-2998 colon): 1820 nM | TGI (HCC-2998 colon): 4150 nM | GI50 (SF-539 CNS): 976 nM | TGI (SF-539 CNS): 4380 nM | GI50 (HCT-116 colon): 560 nM | TGI (HCT-116 colon): 25900 nM | GI50 (PC-3 prostate): 20400 nM | GI50 (SF-295 CNS): 851 nM | TGI (SF-295 CNS): 3010 nM | GI50 (NCI-H460 NSCLC): 91.5 nM | TGI (NCI-H460 NSCLC): 7610 nM | GI50 (MCF7 breast): 716 nM | GI50 (SK-MEL-2 melanoma): 4150 nM | TGI (SK-MEL-2 melanoma): 8270 nM | GI50 (K-562 leukemia): 910 nM | TGI (K-562 leukemia): 6360 nM | GI50 (CAKI-1 renal): 1610 nM | TGI (CAKI-1 renal): > 41000 nM | GI50 (HCT-15 colon): 2010 nM | TGI (HCT-15 colon): 13600 nM | GI50 (OVCAR-8 ovarian): 1530 nM | TGI (OVCAR-8 ovarian): 10300 nM | GI50 (HT29 colon): 2280 nM | TGI (HT29 colon): 7300 nM | GI50 (OVCAR-3 ovarian): 2640 nM | TGI (OVCAR-3 ovarian): 13800 nM | GI50 (MDA-MB-435 melanoma): 3960 nM | TGI (MDA-MB-435 melanoma): 20400 nM | GI50 (EKVX NSCLC): 11300 nM | TGI (EKVX NSCLC): > 43600 nM | GI50 (A498 renal): 2000 nM | TGI (A498 renal): 19000 nM | GI50 (COLO 205 colon): 433 nM | TGI (COLO 205 colon): 10600 nM
